Data as given in US20090156477A1, “Compositions and Methods for Regulating Inflammatory Responses” (Massachusetts Institute of Technology, priority 2005, published 2009).

Key:
Type in all cases: cell-based, human
Fz2 = experiment: RT-PCR expression in Caco-2 cells after FGF treatment: Fz2; details: normalized to PBS treatment, defined as 1.0
Source text: (§1) Five μg of total RNA was isolated from Caco-2 cells using Trizol reagent (Life Tech, Rockville, Md.) followed by reverse transcription with random hexamers. Specific oligomers were designed based on published sequences in order to detect the expression of specific human Wnt, Fz and syndecan isoforms. Sequences of primer pairs were as follows: Wnt-1: 5′-CACGACCTCGTCTACTTCGAC-3′ (SEQ ID NO: 17) and 5′-ACAGACACTCGTGCAGTACGC-3′ (SEQ ID NO: 18); Wnt-2: 5′-CATGGTGGTACATGAGAGCTAC-3′ (SEQ ID NO: 19) and 5′-GGCAAATACAACTCCAGCTGAG-3′ (SEQ ID NO: 20); Wnt-3: 5′-GAGAGCCTCCCCGTCCACAG-3′ (SEQ ID NO: 21) and 5′-CTGCCAGGAGTGTATTCGCATC-3′ (SEQ ID NO: 22); Wnt-3a: 5′-CAGGAACTACGTGGAGATCATG-3′ (SEQ ID NO: 23) and 5′-CCATCCCACCAAACTCGATGTC-3′ (SEQ ID NO: 24); Fz-1: 5′-GAACTTTCCTCCAACTTCATGGC-3′ (SEQ ID NO: 25) and 5′-CATTTCCATTTTACAGACCGG-3′ (SEQ ID NO: 26); Fz-2: 5′-GGTGAGCCAGCACTGCAAGAG-3′ (SEQ ID NO: 27) and 5′-CCTAAAAGTGAAATGGTTTCGATCG-3′ (SEQ ID NO: 28); Fz-10: 5′-ACACGTCCAACGCCAGCATG-3′ (SEQ ID NO: 29) and 5′-ACGAGTCATGTTGTAGCCGATG-3′ (SEQ ID NO: 30); and Syndecan-1/Sdc-1/CD138: 5′-CTTCACACTCCCCACACAGA-3′ (SEQ ID NO: 31) and 5′-TCCTGTTTGGTGGGCTTCTG-3′ (SEQ ID NO: 32). To control for total cell […], RT-PCR was also performed on β-actin using the primers 5′-GCCAGCTCACCATGGATGATGATAT-3′ (SEQ ID NO: 33) and 5′-GCTTGCTGATCCACATCTGCTGGAA-3′ (SEQ ID NO: 34). PCR was performed using the Advantage-GC cDNA kit from Clontech as per manufacturer's instructions (Palo Alto, Calif.).

Caco-2 cells = experiment: Caco-2 proliferation assay (whole cell number); details: for increased whole cell number: 100 ng/ml ligand, three days, vs PBS control
Method: Caco-2 cells were grown to just prior to confluence, and T84 cells were grown to confluence. Each flask was washed with 20 ml PBS and treated with 3 ml trypsin-EDTA at 37° C. for 20-60 minutes until cells detached. Cells were centrifuged for 3 minutes at 195×g. The supernatant was aspirated, and the cells were resuspended in 10 ml media. The cell density was measured using an electronic cell counter, and the suspension was diluted to 50,000 cells/ml. The suspension was plated at 1 ml/well into 12-well tissue culture plates. After a 24 hour incubation in a 5% CO2, 37° C. humidified incubator, the media was aspirated, the wells were washed with serum free media, and the cells were supplemented with media containing 0.1% FBS. The wells were then supplemented with 10 μl PBS, 50 mM sodium chlorate, or 200 μM TM, and incubated for 24 hours. Subsequently, cells were supplemented with 100 ng/ml FGF1, FGF2, FGF7, or 10 μl PBS, and incubated for 72 hours. Wells were then washed twice with PBS and treated with 0.5 ml trypsin-EDTA/well and incubated at 37° C. until cells detached. Whole cell number was determined using an electronic cell counter. Data was averaged over three experiments, each consisting of four wells per condition.

Sdc-1 = experiment: RT-PCR expression in Caco-2 cells after FGF treatment: Sdc-1; details: normalized to PBS treatment, defined as 1.0
Source text: as §1

T84 cells = experiment: Transepithelial resistance (TER) of T84 monolayers; details: for inhibited TER increases: 100 ng/ml ligand, three days (72 hours) after addition, percent reduction in TER compared to PBS treated cells; for reduced resistance on day 5: ligand added on day 0 and day 2, compared to untreated cells
Method: Caco-2 cells were grown close to confluence, and T84 cells were grown to confluence. The apical chambers of transwell plates with 6.5 mm diameter and 3 μm pore size filters were pretreated with 50 μl of 45 μg/ml collagen IV in 60% ethanol 24 hours prior to plating and incubated overnight at room temperature. After reaching confluence, cells were washed with 20 ml PBS and treated with 3.5 ml trypsin-EDTA per 175 cm^2 flask for 20-60 min at 37° C. until cells detached. Cells were resuspended in 16.5 ml media appropriate to the cell type. Each apical chamber was supplemented with 82 μl cell solution. The basolateral chamber was filled with 1 ml propagation media. Filters were fed with new media every two days over the course of experiments.
Caco-2 and T84 cells were allowed to grow on transwells to form monolayers. Monolayer formation was examined every other day by light microscopy as well as by transepithelial resistance (TER) measurements using an EVOM ohmmeter (World Precision Instruments, Sarasota, Fla.). After monolayer formation, cells were treated with 100 ng/ml FGF1, 100 ng/ml FGF2, 100 ng/ml FGF7 or an equivalent volume (10 μl) of PBS. TER measurements were made either after 72 hours or at each of the 30 minutes, 1 hour, 2 hours, 4 hours, 9 hours, 24 hours and 48 hours timepoints. To determine the effects of multiple additions of ligand, FGFs or PBS were added initially and again after 2 days, and TER measurements were made after 0, 2 and 5 days.
To probe the mechanism by which various FGFs induced cell mediated effects, various media treatments were employed. Ammonium tetrathiomolybdate (TM) was added 24 hours prior to the addition of ligands to yield a final concentration of 200 μM, sufficient to prevent the release of FGF1 [3]. Similarly, sodium chlorate, which reduces cell HSPGs and the sulfation of associated HSGAGs, was added 24 hours prior to the addition of ligands to yield a final concentration of 50 mM [33,34]. Antibodies and kinase inhibitors were added immediately prior to ligands. Antibodies to FGF1, FGFR1 and FGFR3 were added at a 1:100 dilution. Kinase inhibitors were added to yield final concentrations of 50 μM LY294002, 20 μM PD98059, 1 μM SB203580. All experiments were performed in triplicate.

FGF1: Recombinant human FGF1 from Amgen
Fz2 expression (intensity of RT-PCR images) (Fz2): 0.7 | effect of added agent on proliferative effect of FGF2 and FGF7 (Caco-2 cells; TM 200 μM, FGF1 added to TM treated cells): restored the proliferative capacity of these ligands | proliferation (in words) (Caco-2 cells; over three days): did not induce the proliferation | Sdc-1 expression (intensity of RT-PCR images) (Sdc-1): 1.3 | inhibited TER increases (T84 cells): 30.1±1.5% | reduced TER at 48 hours (T84 cells; 100 ng/ml, 48 hours): 22.7±3.2% | effect of added agent on FGF-induced reduction in TER (T84 cells; agent given before or with 100 ng/ml FGFs (TM 200 μM, sodium chlorate 50 mM, LY294002 50 μM, antibodies 1:100)): restored TER reductions

FGF2: Recombinant human FGF2, produced as described
Fz2 expression (intensity of RT-PCR images) (Fz2): 1.7 | increased whole cell number (Caco-2 cells): 20.2±7.4% | Sdc-1 expression (intensity of RT-PCR images) (Sdc-1): 0.9 | inhibited TER increases (T84 cells): 43.4±16.6% | reduced resistance on day 5 (T84 cells): 41.7±8.1%

B1: FGF7: Recombinant human FGF7 from Sigma (protein, UniProt P21781 32-194, looked up)
Fibroblast growth factor 7: CNDMTPEQMATNVNCSSPERHTRSYDYMEGGDIRVRRLFCRTQWYLRIDKRGKVKGTQEMKNNYNIMEIRTVAVGIVAIKGVESEFYLAMNKEGKLYAKKECNEDCNFKELILENHYNTYASAKWTHNGGEMFVALNQKGIPVRGKKTKKEQKTAHFLPMAIT
Fz2 expression (intensity of RT-PCR images) (Fz2): 1.6 | increased whole cell number (Caco-2 cells): 16.4±8.9% | Sdc-1 expression (intensity of RT-PCR images) (Sdc-1): 0.6 | inhibited TER increases (T84 cells): 54.6±7.6% | reduced resistance on day 5 (T84 cells): 37.3±3.5%
